The values below come from US11045510B2, “Combination of aqueous extracts of watercress and nasturtium and ATP for use in the treatment of alopecia” (PIERRE FABRE DERMO-COSMETIQUE, priority 2017, dated 2021).

Assay [1] concerns hepatocyte growth factor (HGF) released by dermal papilla cells. The assay is described as follows: HGF release by dermal papilla cells derived from human hair follicles. Conditions: ATP 30 μM. It is filed as cell-based. How it is done: (§1) The goal of this study is to evaluate the effects of the combination of an aqueous extract of watercress and of an aqueous extract of Indian cress, combined with ATP on the release of 2 anagen phase markers, hepatocyte growth factor (HGF) and keratinocyte growth factor (KGF), released by dermal papilla cells. These two growth factors have a stimulatory activity on hair growth by activating specific signalling pathways.
(§2) The studies were carried out on dermal papilla cells derived from human hair follicles from three different donors. The cells are seeded in 24-well plates and cultured for 24 h with the necessary supplements. The cells are then treated for 24 h with the products, i.e., either with ATP (30 μM), with Cressatine®, i.e., an aqueous extract of watercress and an aqueous extract of Indian cress (140 μg/ml), or with the combination ATP-Cressatine® at the same concentrations as before. The supernatants were collected for subsequent analysis of markers HGF and KGF. HGF is measured using set HCCBP1MAG-58K from EMD Millipore and KGF is measured by using set KGF/FGF-7 DuoSet ELISA DY251 from R&D Systems.

The test system of assay [2] is keratinocyte growth factor (KGF) released by dermal papilla cells. The assay is described as follows: KGF release by dermal papilla cells derived from human hair follicles. It is filed as cell-based. The conditions noted are these: ATP 30 μM. How it is done:
as §1, §2

The mark [3] stands for this setting: cells treated for 24 h, Cressatine 140 μg/ml, combination at same concentrations, average of 3 donors.

The structures appear in SMILES notation.

As for `Nc1ncnc2c1ncn2[C@@H]1O[C@H](COP(=O)(O)OP(=O)(O)OP(=O)(O)O)[C@@H](O)[C@H]1O` [ATP, adenosine 5′-triphosphate], the HGF in assay [1] (setting [3]) was 92 pg/mL. In assay [1] (versus control, 24 h), the “modulation of the production of HGF (in words)” value was “does not significantly modulate”. In addition, in assay [2] (setting [3]), the KGF was determined as 37 pg/mL. The “higher secretion of KGF” value in assay [2] (versus control, 24 h) came to 50%.
